The supplement of paper PMC10307832

Tests used:
Assay in all cases: relative viability (nuclei count vs DMSO), 5 days (fraction); higher = more cells survive
[1] = compound: CCC1=CN=CN=C1N2CCN(CC2)CC3=NC4=C(N3)C=C(C=C4)C(F)(F)F + COc1cc2c(Oc3ccc(NC(=O)C4(C(=O)Nc5ccc(F)cc5)CC4)cc3F)ccnc2cc1OCCCN1CCOCC1 [Foretinib] (partner 0.25 µM)
Procedure, shortened: (§1)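 Relative viability equals treated-well nuclei counts divided by vehicle-well nuclei counts. Counts came from 4× images of lung cancer cell lines grown in 1536-well plates for 5 days after pin-tool dosing on the day after seeding. Dosing used one drug alone or a fixed anchor-drug dose plus five library-drug doses (not always all listed) in √10 steps, and values are medians of duplicate plates.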

[2] = compound: CCn1c(-c2nonc2N)nc2cnc(Oc3cccc(NC(=O)c4ccc(OCCN5CCOCC5)cc4)c3)cc21 + CCNC(=O)c1noc(-c2cc(C(C)C)c(O)cc2O)c1-c1ccc(CN2CCOCC2)cc1 [Luminespib] (partner 0.01 µM)
Procedure, shortened: as §1

[3] = compound: CCn1c(-c2nonc2N)nc2cnc(Oc3cccc(NC(=O)c4ccc(OCCN5CCOCC5)cc4)c3)cc21 + COc1cc2c(Oc3ccc(NC(=O)C4(C(=O)Nc5ccc(F)cc5)CC4)cc3F)ccnc2cc1OCCCN1CCOCC1 [Foretinib] (partner 0.25 µM)
Procedure, shortened: as §1

[4] = compound: N=C1NC(=O)/C(=C/c2ccc(O)cc2)S1 [Mirin] + NC(=O)Nc1cc(-c2cccc(F)c2)sc1C(=O)N[C@H]1CCCNC1 [AZD7762] (partner 0.2 µM)
Procedure, shortened: as §1

Cell Line	relative viability ([1]; first compound 0.04 µM)	relative viability ([1]; first compound 0.1265 µM)	relative viability ([1]; first compound 0.4 µM)	relative viability ([1]; first compound 4 µM)	relative viability ([2]; first compound 0.04 µM)	relative viability ([2]; first compound 0.1265 µM)	relative viability ([2]; first compound 0.4 µM)	relative viability ([2]; first compound 1.265 µM)	relative viability ([2]; first compound 4 µM)	relative viability ([3]; first compound 0.04 µM)	relative viability ([3]; first compound 0.1265 µM)	relative viability ([3]; first compound 0.4 µM)	relative viability ([3]; first compound 1.265 µM)	relative viability ([3]; first compound 4 µM)	relative viability ([4]; first compound 0.25 µM)	relative viability ([4]; first compound 0.7906 µM)	relative viability ([4]; first compound 2.5 µM)	relative viability ([4]; first compound 7.906 µM)	relative viability ([4]; first compound 25 µM)	relative viability ([1]; first compound 1.265 µM)
EMC-BAC-2	1	0.943	1.03	0.914	1.13	1.16	1.1	0.863	0.662	0.988	1	0.973	0.644	0.565	0.977	1.1	1.26	0.92	1.05	–
SW 900	0.778	0.825	0.81	0.793	0.178	0.197	0.178	0.154	0.174	1.04	0.977	0.91	0.995	0.886	0.67	0.669	0.669	0.518	0.641	0.795
CAL-12T	1.08	1.1	1.07	0.968	0.687	0.444	0.287	0.379	0.286	1.42	1.3	1.28	0.793	0.51	0.681	0.858	0.633	0.717	0.831	1.12
NCI-H1355	1	0.875	0.85	0.793	0.744	0.742	0.672	0.759	0.797	1.05	0.948	1.03	0.955	1	0.776	0.912	0.845	0.66	0.799	0.946
PC-14	1.01	0.825	0.947	0.997	0.15	0.136	0.154	0.154	0.173	0.927	0.84	0.761	0.718	0.72	0.389	0.481	0.365	0.313	0.429	0.963
LK-2	1.29	1.41	1.09	0.743	0.216	0.147	0.169	0.202	0.244	1.23	1.19	1.28	1.26	1.28	0.22	–	0.338	0.209	0.185	1.12
NCI-H441	0.96	1.07	0.938	0.993	0.333	0.342	–	0.326	0.416	1.12	1.04	–	0.859	0.79	1.36	1.05	1.23	1.2	1.18	0.884
NCI-H727	0.854	0.811	0.693	0.949	0.418	0.264	0.352	0.379	0.413	1.08	0.888	0.852	1.15	1.15	0.595	0.612	0.841	0.47	0.443	0.573
NCI-H23	0.822	0.99	0.961	0.906	0.225	0.242	0.217	0.21	0.215	1.05	0.909	0.978	0.853	0.862	0.221	–	0.259	0.198	0.131	0.801
NCI-H1395	0.847	0.881	1.01	0.94	0.674	0.849	0.538	0.384	0.449	1.03	0.95	0.975	0.501	0.561	0.402	–	0.419	0.434	0.393	0.986
NCI-H596	0.861	1.13	0.818	0.966	1.28	1.1	1.01	0.979	0.97	0.961	0.873	0.814	0.742	0.767	1	1.02	1.09	1.05	1.11	–
NCI-H460	1.05	1.03	0.999	0.964	0.0313	0.0331	0.0317	0.0272	0.0222	1.06	0.902	0.978	0.426	0.16	0.625	0.921	0.665	0.661	0.876	1.06
